The conditions of data set [1]: human, in vivo; cited from earlier work.
For data set [2], the system named is CRF receptors (rat anterior pituitary cells). Description: ACTH secretion from rat anterior pituitary cells (CRF agonist/antagonist activity). To be noted: for CRF agonist activity relative to standard oCRF: oCRF arbitrarily 1.0. It is filed as cell-based. The protocol:
Candidate ligand inhibitors may be screened for their ability to displace CRF from the CRF/CRF-BP complex by biological assay or by in vitro assay. One suitable biological assay is the measurement of ACTH release from cultured pituitary cells. This assay is performed in the following manner. Anterior pituitary glands from rats are washed six times with sterile HEPES buffer and transferred to a solution containing collagenase. After subsequent transfer to a 25 ml Bellco dispersion flask, the pituitaries are stirred for 30 minutes at 37° C., triturated, incubated for a further 30 minutes, and again triturated. The partially dispersed cells are then collected by centrifugation. The cell pellet is resuspended in 10 ml of neuraminidase and again collected by centrifugation. The pellet is reconstituted in 25 ml of BBM-P (BBM (Irvine Scientific) plus 100 μg/L, cortisol, 1 μg/L insulin, 0.1 μg/L EGF2, 0.4 μg/L T3, 0.7 μg/L PTH, 10 μg/L glucagon, and 2% fetal bovine serum), centrifuged again, and the resultant pellet is finally reconstituted in BBM-P. The cells are then plated at a density of 50,000-100,000/well in a 48 well plate and incubated for 2 days. On the day of assay the cells are washed once with BBM-T in preparation for stimulation with the peptide candidates or CRF. Cells are stimulated with a maximally stimulating dose of h/rCRF (1 nM) and ACTH release is measured by RIA or immunoradiometric assay. When a blocking concentration of CRF-BP is added, the amount of ACTH that is released is reduced and expressed as a fraction of the maximal release. The ligand inhibitor is added at various doses. The potency of the peptide in displacing CRF from CRF-BP is measured by the amount of ACTH release expressed as a fraction of the maximal release caused by CRF given alone.
An additional assay using rat anterior pituitary cells to measure ACTH secretion can be carried out to determine whether a ligand inhibitor functions as a CRF agonist of hCRF receptors. […] Antagonistic action may be determined by performing the assay in the presence of a challenge dose of CRF. […]

Regarding `Nc1c2c(nc3ccccc13)CCCC2` [Tacrine], in data set [1], the “memory improvement in Alzheimer's patients” value is given as “only marginal memory improvement” and the side effects entry was “elevating liver enzymes”.

Consider “hCRF (6-33): CRF-BP peptide ligand h/rCRF (6-33) (ISLDLTFHLLREVLEMARAEQLAQQAHS; Corticoliberin; UniProt P06850 159-186, looked up, fragment)”, for which, in data set [2], the CRF antagonist activity result is listed as “does not exhibit substantial CRF antagonist activity” and the “CRF agonist activity relative to standard oCRF” value was “less than 0.1%”.

With `CNCCC(Oc1ccc(C(F)(F)F)cc1)c1ccccc1` (stereo not shown) [fluoxetine], the side effects result in data set [1] is on record as “suicidality”.

As to `CC(NC(C)(C)C)C(=O)c1cccc(Cl)c1` (stereo not shown) [bupropion], the side effects result in data set [1] is given as “convulsions”.

As to “hCRF (9-33): The peptide hCRF (9-33) (DLTFHLLREVLEMARAEQLAQQAHS; Corticoliberin; UniProt P06850 162-186, looked up, fragment)”, in data set [2], the “CRF agonist activity relative to standard oCRF” value is listed as “less than 0.01%”.

Values taken from patent US5959109A, “Compounds and methods for increasing endogenous levels of corticotropin-releasing factor” (Neurocrine Biosciences, Inc., priority 1996, dated 1999).
